Source: ChEMBL document CHEMBL6177943, “Recent advances in small molecule design strategies against hepatic fibrosis” (Eur J Med Chem, 2025)

Legend:
[1] = target: Collagen alpha-1(I) chain (Homo sapiens) (UniProt P02452); assay: Inhibition of COL1A1 (unknown origin) transfected in human LX-2 cells at 40 uM incubated for 24 hrs by Bright-Glo luciferase assay relative to control; format: cell-based
[2] = Cmax in Sprague-Dawley rat at 25 mg/kg, po measured after 8 hrs; format: ADME, organism-based; details: in vivo
[3] = Anti-hepatic activity in rat HSC-T6 cells assessed as inhibition of LPS-induced cell proliferation at 10 uM incubated for 24 hrs by MTS assay relative to control; format: functional
[4] = tested on: LX-2; assay: Anti-fibrotic activity in human LX-2 cells assessed as inhibition of alpha-SMA mRNA expression; format: functional; parameters: scale not given: the % may be the effect or the level left

Collagen alpha-1(I) chain (Homo sapiens), sequence (P02452 whole entry): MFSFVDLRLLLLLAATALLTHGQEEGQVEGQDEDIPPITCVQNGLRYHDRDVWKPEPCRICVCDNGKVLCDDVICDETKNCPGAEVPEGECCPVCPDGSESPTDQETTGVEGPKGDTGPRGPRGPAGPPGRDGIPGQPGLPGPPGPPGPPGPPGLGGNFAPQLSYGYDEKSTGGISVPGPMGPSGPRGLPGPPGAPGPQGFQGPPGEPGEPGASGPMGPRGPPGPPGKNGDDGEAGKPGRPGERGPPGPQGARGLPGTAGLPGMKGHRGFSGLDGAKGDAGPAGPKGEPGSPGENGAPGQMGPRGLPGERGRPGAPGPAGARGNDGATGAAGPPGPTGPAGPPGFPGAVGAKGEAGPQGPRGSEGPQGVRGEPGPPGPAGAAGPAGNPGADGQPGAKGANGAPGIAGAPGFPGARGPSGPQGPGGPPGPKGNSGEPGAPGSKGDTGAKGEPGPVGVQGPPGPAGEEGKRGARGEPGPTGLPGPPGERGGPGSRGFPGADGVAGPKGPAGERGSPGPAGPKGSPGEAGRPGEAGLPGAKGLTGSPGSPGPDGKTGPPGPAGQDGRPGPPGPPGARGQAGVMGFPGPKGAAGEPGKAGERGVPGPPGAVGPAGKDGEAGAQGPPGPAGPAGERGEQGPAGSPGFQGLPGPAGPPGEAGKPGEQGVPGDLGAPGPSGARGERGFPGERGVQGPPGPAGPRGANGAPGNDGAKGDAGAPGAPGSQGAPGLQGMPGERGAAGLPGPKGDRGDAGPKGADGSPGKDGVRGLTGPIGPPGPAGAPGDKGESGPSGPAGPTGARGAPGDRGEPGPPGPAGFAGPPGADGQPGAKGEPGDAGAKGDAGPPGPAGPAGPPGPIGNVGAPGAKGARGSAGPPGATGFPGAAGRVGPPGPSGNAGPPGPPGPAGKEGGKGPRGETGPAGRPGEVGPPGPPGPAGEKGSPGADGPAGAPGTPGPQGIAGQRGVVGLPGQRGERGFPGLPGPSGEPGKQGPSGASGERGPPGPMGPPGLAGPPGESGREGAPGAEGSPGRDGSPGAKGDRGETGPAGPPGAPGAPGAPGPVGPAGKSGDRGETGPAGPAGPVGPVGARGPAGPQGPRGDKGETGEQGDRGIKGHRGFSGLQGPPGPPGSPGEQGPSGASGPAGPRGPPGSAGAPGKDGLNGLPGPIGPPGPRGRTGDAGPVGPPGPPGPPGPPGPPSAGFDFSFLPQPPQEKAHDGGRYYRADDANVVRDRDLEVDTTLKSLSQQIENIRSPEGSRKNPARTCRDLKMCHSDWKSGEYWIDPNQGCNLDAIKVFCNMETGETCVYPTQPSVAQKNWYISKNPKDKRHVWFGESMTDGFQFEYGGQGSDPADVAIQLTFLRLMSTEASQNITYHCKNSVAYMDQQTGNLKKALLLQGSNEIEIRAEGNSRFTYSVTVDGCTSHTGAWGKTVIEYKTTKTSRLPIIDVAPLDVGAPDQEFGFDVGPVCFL

Compound: C1=C2CCCN[C@H]2[C@@H]2C[C@H]1[C@H]1CCCCN1C2
- inhibition [1]: 4.7%

Compound: O=c1cccc2n1CC1CC2CN(Cc2cc(Cl)ccc2Cl)C1 (stereo not given)
- Cmax [2]: 960 nM

Compound: O=c1cccc2n1C[C@@H]1CNC[C@H]2C1
- inhibition [1]: 90%

Compound: COC(=O)c1cc2cc(OC)c(OC)cc2c2cc(C)ccc12
- inhibition at 10 µM [3]: 34.2%

Compound: CCCCCCCCN(C)C(=O)c1cc(O)c(O)c(O)c1
- Activity [4]: 47.7%
